Source: patent US11533912B2, “Use of cinnamate compounds in the control of fungal diseases of crops” (Institute of Plant Protection, Gansu Academy of …, priority 2019, dated 2022)
Like-named read-outs stand apart in the source and are kept apart here.

Assays:
C. gossypii = assay: Ex vivo mycelial growth, growth rate method; type: cell-based; conditions: 1 mg/mL
Exserohilum turcicum = assay: Ex vivo mycelial growth, growth rate method; type: cell-based; conditions: 1 mg/mL
Pyricularia grisea = assay: microbe, parasite or virus in culture; type: cell-based
[1] = test system: damping-off (P. aphanidermatum, P capsici); assay: In-vivo control of pepper damping-off in a greenhouse (sick soil); conditions: 0.80 mg/mL, 200 mL liquor per pot
Protocol: (§1) (2) In-Vivo Determination Method • Sick soil of damping-off (P. aphanidermatum, P capsici) was collected from the fields of tomatoes, eggplants and peppers in solar greenhouse, and mixed evenly in equal proportion. Tomatoes (Variety: Song Tian Fen Yang Yang, 100 grains), eggplants (Variety: Lanza No. 2 F1 long eggplant, 100 grains), pepper (Longjiao 2 F1, 100 grains) were seeded quantitatively with the sick soil in pots (diameter: 15 cm) in a greenhouse, additionally with sterile vermiculite as the control (each 100 grains for determining the germination rate). […] The computational formula is as below: Mortality of Seedlings (%)=[number of survival seedlings in the seeded grains−number of seeded grains×(100%−germination rate)]/number of seeded grains×100; Control Effect (%)=(mortality of control seedlings−mortality of treated seedlings)/mortality of control seedlings×100.

F. oxysporum f. sp. lini = assay: Ex vivo mycelial growth, growth rate method; type: cell-based; conditions: 1 mg/mL
plant pathogenic fungi = assay: organism not typed; type: cell-based; conditions: read-out: inhibition rate on mycelial growth, range over 5 fungi
[2] = test system: damping-off (P. aphanidermatum, P capsici); assay: In-vivo control of eggplant damping-off in a greenhouse (sick soil); conditions: 0.80 mg/mL, 200 mL liquor per pot
Protocol: as §1

E. cichoracearum = assay: Field efficiency test on cucumber powdery mildew; conditions: 0.50 mg/mL (active ingredients)
Protocol: The first application was started on Jun. 15, 2018, and E. cichoracearum was inoculated on June 17th (the diseased leaves were harvested from the solar greenhouse near the military airfield at Xiaguanying town, Yuzhong County, moisturized in the greenhouse for 2 days, then shredded, and filtered over a gauze, the filtrate was sprayed onto both sides of the cucumber leaves with the cone nozzle of an electric sprayer for inoculation). The second, third and fourth applications were conducted on June 23rd, July 2nd, and July 9th respectively, the water consumptions of which were adjusted promptly according to the amount of water desired for spraying evenly onto both sides of the control leaves. 10 days after the fourth application, the number of disease leaves at each grade of powdery mildew was investigated following the grading standard of 9 grades, to calculate the disease index and the control effect.

Valsa mali = assay: Ex vivo mycelial growth, growth rate method; type: cell-based; conditions: 1 mg/mL
[3] = test system: Erysiphe cucurbitacearum or Sphaerotheca cucurbitae; assay: In-vivo control of zucchini powdery mildew in a greenhouse
Protocol: (2) In-Vivo Determination Method • Zucchini (Variety: Wuwei Xianglin extra-early 1st generation) were cultured in pots in a greenhouse, and inoculated with Erysiphe cucurbitacearum or Sphaerotheca cucurbitae at the stage of 3 to 4 leaves. […] Both sides of the leaves were sprayed evenly with a small hand-held sprayer so that the leaves were wetted by the liquor without loss. Applications were conducted every 7 days consecutively for 4 times. 10 days after the fourth application, the number of disease leaves at each grade of powdery mildew was investigated for the whole plant following the grading standard of 9 grades, to calculate the disease index and the control effect. The computational formula is as below: Disease index=[(Number of disease leaves at each grade×Corresponding grade value)/(Total number of investigated leaves×9)]×100; Control effect=(Disease index of the clear water control−Treated disease index)/Disease index of the clear water control×100.

[4] = test system: Botryosphaeriana berengeriana; assay: Ex vivo mycelial growth, growth rate method (line 'Botryosphaeriana berengeriana', r23); type: cell-based; conditions: Botryosphaeriana berengeriana (first line), 1 mg/mL
Mycosphaerlla melonis = assay: Ex vivo mycelial growth, growth rate method; type: cell-based; conditions: 1 mg/mL
F. graminearum = assay: microbe, parasite or virus in culture; type: cell-based
Thanatephorus cucumeris = assay: Ex vivo mycelial growth, growth rate method; type: cell-based; conditions: 1 mg/mL
Phytophthora infestans [5] = type: cell-based; conditions: Phytophthora infestans (first line); 1 mg/mL
[6] = test system: Blumeria graminis f. sp. trilici; assay: In-vivo control of wheat powdery mildew in a greenhouse; design: species or system Blumeria graminis f. sp. trilici on winter wheat
E. polygoni = assay: In-vivo control of marrow bean powdery mildew in a greenhouse
Protocol: (2) In-Vivo Determination Method • Marrow bean (Variety: Thailand Jiadouwang) were cultured in pots in a greenhouse, and inoculated with E. polygoni at the stage of 4 leaves. […] Both sides of the leaves were sprayed evenly with a small hand-held sprayer so that the leaves were wetted by the liquor without loss. Applications were conducted every 7 days consecutively for 4 times. 10 days after the fourth application, the number of disease leaves at each grade of powdery mildew was investigated for the whole plant following the grading standard of 9 grades, to calculate the disease index and the control effect.

[7] = test system: Gaeumannomyces graminis var. graminis and G. graminis var. tritici; assay: Ex vivo mycelial growth, growth rate method; type: cell-based; conditions: 1 mg/mL
[8] = test system: Botryosphaeria berengeriana; assay: Ex vivo mycelial growth, growth rate method (line 'Botryosphaeria berengeriana', r34); type: cell-based; conditions: Botryosphaeria berengeriana (second line), 1 mg/mL
Fusarium graminearum = assay: microbe, parasite or virus in culture; type: cell-based
Sclerotinia sclerotiorum = assay: Ex vivo mycelial growth, growth rate method; type: cell-based; conditions: 1 mg/mL
Rhizoctonia solani = assay: Ex vivo mycelial growth, growth rate method; type: cell-based; conditions: 1 mg/mL
Colletotrichum capsici = assay: Ex vivo mycelial growth, growth rate method; type: cell-based; conditions: 1 mg/mL
zucchini powdery mildew = assay: Field efficiency test on zucchini powdery mildew; type: in vivo; conditions: 0.50 mg/mL
F. verticillioide = assay: Ex vivo mycelial growth, growth rate method; type: cell-based; conditions: 1 mg/mL
Pythium aphanidermatum = assay: Ex vivo mycelial growth, growth rate method; type: cell-based; conditions: 1 mg/mL
Botrytis cinerea = assay: Ex vivo mycelial growth, growth rate method; type: cell-based; conditions: 1 mg/mL
Phytophthora infestans [9] = type: cell-based; conditions: Phytophthora infestans (second line), 1 mg/mL
Coniella diplodiella = assay: Ex vivo mycelial growth, growth rate method; type: cell-based; conditions: 1 mg/mL
Phytophthora capsici = assay: Ex vivo mycelial growth, growth rate method; type: cell-based
[10] = test system: F. oxysporum f. sp. vasinfectum; assay: Ex vivo mycelial growth, growth rate method; type: cell-based; conditions: 1 mg/mL
[11] = Fusarium oxysporum, mycelial growth
[12] = Fusarium graminearum, read-out: Inhibition Rate
[13] = mycelial growth, Phytophthora capsici, 1 mg/mL

## CCOC(=O)/C=C/c1ccc2c(c1)OCO2
C. gossypii
  Average Diameter of the Colony: 1.74 cm
C. gossypii; Colletotrichum gossypii, mycelial growth
  inhibition at 1000 µg/mL: 67.8%
Exserohilum turcicum
  Average Diameter of the Colony: 1.52 cm
Exserohilum turcicum; mycelial growth
  inhibition at 1000 µg/mL: 75.5%
Pyricularia grisea; 1 mg/mL
  Average Diameter of the Colony: 2.70 cm
Pyricularia grisea; read-out: Inhibition Rate
  inhibition at 1000 µg/mL: 25.6%
[1]
  control effect on pepper damping-off: 52%
F. oxysporum f. sp. lini
  Average Diameter of the Colony: 6.97 cm
F. oxysporum f. sp. lini; [11]
  inhibition at 1000 µg/mL: 22.6%
Plant pathogenic fungi
  inhibition at 1000 µg/mL: 88.8 to 100%
[2]
  control effect on eggplant damping-off: 53.63%
E. cichoracearum
  control effect on cucumber powdery mildew: 80.95%
Valsa mali
  Average Diameter of the Colony: 0.00 cm
Valsa mali; Cytospora mali, mycelial growth
  inhibition at 1000 µg/mL: 100%
[3]; 0.20 mg/mL
  Control Effect: 77.06%
[3]; 0.333 mg/mL
  Control Effect: 96.21%
[3]; 0.50 mg/mL
  Control Effect: 97.93%
[4]
  Average Diameter of the Colony: 4.20 cm
[4]; mycelial growth
  inhibition at 1000 µg/mL: 26.3%
Mycosphaerlla melonis
  Average Diameter of the Colony: 0.75 cm
Mycosphaerlla melonis; mycelial growth
  inhibition at 1000 µg/mL: 91.3%
F. graminearum; F. graminearum (second line), 1 mg/mL
  Average Diameter of the Colony: 1.73 cm
F. graminearum; [12]
  inhibition at 1000 µg/mL: 79.9%
Thanatephorus cucumeris
  Average Diameter of the Colony: 3.75 cm
Thanatephorus cucumeris; mycelial growth
  inhibition at 1000 µg/mL: 56.4%
Phytophthora infestans [5]
  Average Diameter of the Colony: 2.01 cm
[6]; 0.143 mg/mL
  Control Effect: 74.28%
[6]; 0.20 mg/mL
  Control Effect: 77.65%
E. polygoni; 0.10 mg/mL
  Control Effect: 75.92%
E. polygoni; 0.143 mg/mL
  Control Effect: 95.20%
E. polygoni; 0.20 mg/mL
  Control Effect: 95.49%
[7]
  Average Diameter of the Colony: 2.45 cm
[7]; mycelial growth
  inhibition at 1000 µg/mL: 65.7%
[8]
  Average Diameter of the Colony: 3.45 cm
[8]; mycelial growth
  inhibition at 1000 µg/mL: 49.3%
Fusarium graminearum; Fusarium graminearum (first line), 1 mg/mL
  Average Diameter of the Colony: 3.00 cm
Fusarium graminearum; [12]
  inhibition at 1000 µg/mL: 43.9%
Sclerotinia sclerotiorum
  Average Diameter of the Colony: 4.71 cm
Sclerotinia sclerotiorum; mycelial growth
  inhibition at 1000 µg/mL: 45.2%
Rhizoctonia solani
  Average Diameter of the Colony: 0.80 cm
Rhizoctonia solani; mycelial growth
  inhibition at 1000 µg/mL: 88.8%
Colletotrichum capsici
  Average Diameter of the Colony: 1.49 cm
Colletotrichum capsici; Colletotrichum truncatum, mycelial growth
  inhibition at 1000 µg/mL: 78%
Zucchini powdery mildew
  Control Effect: 85.56%
F. verticillioide
  Average Diameter of the Colony: 2.91 cm
F. verticillioide; mycelial growth
  inhibition at 1000 µg/mL: 13.9%
Pythium aphanidermatum
  Average Diameter of the Colony: 2.60 cm
Pythium aphanidermatum; mycelial growth
  inhibition at 1000 µg/mL: 61.2%
Botrytis cinerea
  Average Diameter of the Colony: 2.17 cm
Botrytis cinerea; mycelial growth
  inhibition at 1000 µg/mL: 71%
Phytophthora infestans [9]
  Average Diameter of the Colony: 0.00 cm
Coniella diplodiella
  Average Diameter of the Colony: 0.00 cm
Coniella diplodiella; mycelial growth
  inhibition at 1000 µg/mL: 100%
Phytophthora capsici; Phytophthora capsici, 1 mg/mL
  Average Diameter of the Colony: 1.42 cm
Phytophthora capsici; [13]
  inhibition at 1000 µg/mL: 73.2%
Phytophthora capsici; supplementary determination results
  antifungal activity on Phytophthora capsici compared with hymexazol: superior to that of the control agent, hymexazol
[10]
  Average Diameter of the Colony: 2.58 cm
[10]; [11]
  inhibition at 1000 µg/mL: 64.4%

## CO/C=C(/C(=O)OC)c1ccccc1Oc1cc(Oc2ccccc2C#N)ncn1 [Azoxystrobin, azoxystrobin, reference compound]
C. gossypii; mycelial growth
  Inhibition Rate: 40.33%
Exserohilum turcicum; mycelial growth
  Inhibition Rate: 27.78%
Pyricularia grisea; mycelial growth, 1 mg/mL
  Inhibition Rate: 48.11%
F. oxysporum f. sp. lini; mycelial growth
  Inhibition Rate: 34.11%
Mycosphaerlla melonis; mycelial growth
  Inhibition Rate: 56.33%
F. graminearum; mycelial growth, F. graminearum (second line), 1 mg/mL
  Inhibition Rate: 30.78%
Sclerotinia sclerotiorum; mycelial growth
  Inhibition Rate: 51.11%
Botrytis cinerea; mycelial growth
  Inhibition Rate: 51.89%
Phytophthora infestans [9]; mycelial growth
  Inhibition Rate: 100%
Phytophthora capsici; [13]
  Inhibition Rate: 25.55%
[10]; mycelial growth
  Inhibition Rate: 66.33%
